{"source": "patent US11919854B2", "about": "“P2RX7 modulators in therapy” (Centre national de la recherche scientifique, priority 2018, dated 2024)", "key": {"mouse P2RX7 (mP2RX7)": {"target": "T1, mouse P2RX7 (mP2RX7) (Mus musculus, UniProt Q9Z1M0)", "T1 construct": "expressed in transfected cells; host or cells: HEK cells", "T1 sequence (Q9Z1M0 1-595)": "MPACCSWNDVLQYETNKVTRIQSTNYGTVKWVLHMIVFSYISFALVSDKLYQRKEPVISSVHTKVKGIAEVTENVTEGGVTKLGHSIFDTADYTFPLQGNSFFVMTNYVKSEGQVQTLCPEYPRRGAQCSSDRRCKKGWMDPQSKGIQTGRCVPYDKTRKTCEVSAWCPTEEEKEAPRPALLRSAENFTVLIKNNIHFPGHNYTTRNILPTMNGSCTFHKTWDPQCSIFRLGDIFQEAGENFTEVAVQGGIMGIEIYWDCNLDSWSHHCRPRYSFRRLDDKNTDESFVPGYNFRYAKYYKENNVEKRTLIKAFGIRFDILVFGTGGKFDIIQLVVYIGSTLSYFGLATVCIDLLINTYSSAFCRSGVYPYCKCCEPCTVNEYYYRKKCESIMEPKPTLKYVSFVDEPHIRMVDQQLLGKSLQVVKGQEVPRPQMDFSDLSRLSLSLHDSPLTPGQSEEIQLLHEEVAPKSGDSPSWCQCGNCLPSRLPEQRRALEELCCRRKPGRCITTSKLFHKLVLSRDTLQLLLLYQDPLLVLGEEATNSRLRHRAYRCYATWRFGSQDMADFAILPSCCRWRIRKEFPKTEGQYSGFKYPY", "assay": "Channel activity (Fluo4-AM) and large pore opening (Topro3) by flow cytometry, HEK cells expressing mP2RX7, 1 h BzATP", "type": "cell-based", "experimental": "Calcium channel activity (Fluo4AM probe) and large pore opening (Topro3 probe) were analysed by FACS on mP2RX7 HEK cells. Cells were non stimulated (NS) or treated with BzATP (500 μM) alone or in the presence of HEI2314, HEI2328, HEI2333 or HEI2336 (used at 50 μM).\nCalcium channel activity (Fluo4AM probe) and large pore opening (Topro3 probe) were analysed by FACS on mock and mP2RX7 HEK cells. Cells were non stimulated (NS) or treated with BzATP (500 μM) alone or in the presence of HEI2328 used at 50 μM.\n2.1. […] Cation channel activity is assayed with the Fluo4 AM (Invitrogen) probe and opening of large pore with Topro3 (Invitrogen). In each experiment 2×10^6 cells were incubated with 50 nM Fluo4-AM for 30 minutes. After washing, cells were treated with 500 μM BzATP (3′-O-(4-benzoyl)benzoyl ATP) for 1 h, or non-treated, in presence of the compounds of the invention at 50 μM. When indicated, the Topro3 probe (8.5 nM) was added during the 1 h stimulation time. Fluorescence was assayed by flow cytometry."}, "DSS-induced colitis": {"test_system": "DSS-induced colitis", "assay": "DSS-induced colitis mouse model", "type": "in vivo, C57BL/6J mice", "experimental": "(A) Body weight loss and (B) clinical scores from C57BL/6J treated with 3% DSS during 5 days (J1 to J5), followed by 10 days of normal tap water. The treated group received HEI2328 (ip, 2.3 mg/kg in PBS, 10% DMSO). Data are representative of 2 independent experiments (n=20). Mean±SEM are shown. *, p<0.05; **, p<0.01 (Mann-Whitney test).\nThe inflammatory index was scored in a longitudinal (A) and a transversal section of the colon (B). Data are representative of 2 independent experiments (n=20). Mean±SEM are shown. *, p<0.05; **, p<0.01 (Mann-Whitney test).\n(A-D) Phenotypic analysis of immune cells in spleen of 20 mice treated with HEI2328 or non treated. Data are representative of 2 independent experiments (n=20). Mean±SEM are shown. *, p<0.05; **, p<0.01 (Mann-Whitney test).\nAll mice received dextran sulfate sodium (3% DSS, TbS consultancy) ad libitum from day 1 to 5 and returned to normal tap water for the following 10 days. Control mice (n=20) were injected daily intraperitoneally with placebo (PBS/10% DMSO), whereas treated mice received 2.3 mg/kg HEI2328 in PBS/10% DMSO. The inventors used the following semi-quantitative clinical score:\nBody weight loss was scored as follows: 0, no loss; 1, loss <5%; 2, loss <10%; 3, loss <20%; and 4, loss >20%.\nThe scores for stool consistency were measured as 0, normal; 1, loose stools; 2, watery diarrhea; or 3, severe watery diarrhea.\nRectal bleeding was scored as 0, no blood; 1, presence of petechia; 2, stools with a trace of blood; or 3, bleeding.\nInflammation score was performed by trained pathologists. Briefly, the severity of inflammation (none, mild, moderate, severe), extent of inflammation (none, mucosa, mucosa, and submucosa, transmural), crypt damage (none, basal to 1/3, basal to 2/3, crypt loss, crypts, and epithelium loss), and percentage of tissue affected by inflammation (0, 25, 50, 75, and 100%) were scored."}, "[1]": {"test_system": "NCI panel of 60 tumor cell lines", "assay": "Toxicity on NCI panel of 60 tumor cell lines", "type": "cell-based", "details": "HEK cell lines stably transfected with hP2RX7 or mP2RX7 and NCI panel of 60 human tumor cell lines", "source_text": "Toxicity of HEI_2333 and HEI_2336 was already tested on the NCI panel of 60 tumor cell lines (NCI 60-cell panel)."}, "B16-F10 cells": {"test_system": "B16-F10 cells", "assay": "In vivo assay for immunogenic cell death (ICD), B16-F10", "set-up": "species or system mice", "details": "B16-F10 exposed to 3 mM ATP and 50 μM HEI3090, contralateral challenge", "experimental": "a-b. In vivo assay for the evaluation of HEI3090 as an inducer of immunogenic cell death.\nTo induce B16-F10 death, cells were exposed to 3 mM ATP and 50 μM HEI3090 and 1.105 dying cells, or PBS as control, were injected sc in the right flank (n=4). 7 days later, 0.5.105 live B16-F10 cells were injected s.c. in the contralateral flank. (a). Curves shown mean of tumor growth in the contralateral site (b).\nThe inventors performed dedicated experiment to test the hypothesis that HEI3090 may induce immunogenic cell death (ICD)."}}, "note": "Entries after “also recorded” stand apart in the source; their conditions may differ."}
{"compound": "O=C(NCc1ccc(Cl)cc1Cl)[C@@H]1CCC(=O)N1C(=O)Nc1ccc(Cl)c(Cl)c1", "note": "[HEI2328, (S)—N^2-(2,4-Dichlorobenzyl)-N^1-(3,4-dichlorophenyl)-5-oxopyrrolidine-1,2-dicarboxamide]", "values": [{"measurement": "Topro3 positive cells", "setting": "mouse P2RX7 (mP2RX7); HEI2328 50 μM combined with BzATP 500 μM, 1 h, mP2RX7 cells", "result": 61, "unit": "%"}, {"measurement": "channel activity (Fluo4-AM)", "setting": "mouse P2RX7 (mP2RX7); combined with BzATP 500 μM, 1 h stimulation", "result": "did not impact channel activity"}, {"measurement": "Topro3 entry (large pore opening)", "setting": "mouse P2RX7 (mP2RX7); compound 50 μM, BzATP 500 μM, 1 h, mP2RX7 HEK cells", "result": "increase Topro3 entry only in presence of BzATP; also recorded: most active"}, {"measurement": "channel activity and large pore opening, compound alone", "setting": "mouse P2RX7 (mP2RX7); used alone (no BzATP) on Mock and mP2RX7 cells, 50 μM", "result": "did induce neither channel activity nor large pore opening"}, {"measurement": "clinical score", "setting": "DSS-induced colitis; 2.3 mg/kg ip daily", "result": "more healthy and recovered quicker than control mice"}, {"measurement": "recovery of original weight", "setting": "DSS-induced colitis; 2.3 mg/kg ip daily", "result": "recovered their original weight after 15 days"}, {"measurement": "proportion of inflammatory monocytes in spleen", "setting": "DSS-induced colitis; CD11b+CD11c−Ly6c+Ly6g−CD3−NK1.1−B220−", "result": "statistically decreased"}, {"measurement": "reduction of clinical signs compared with classical P2RX7 antagonists (literature)", "setting": "DSS-induced colitis; comparison with published antagonist data", "result": "more efficient than classical P2RX7 antagonists"}, {"measurement": "inflammatory (histologic) index of colon", "setting": "DSS-induced colitis; day 15, colon sections", "result": "very low inflammatory index"}, {"measurement": "body weight loss", "setting": "DSS-induced colitis; days 6 to 9, 2.3 mg/kg ip daily, 3% DSS days 1-5", "result": "lost statistically less weight than the control group"}, {"measurement": "myeloid infiltrate in spleen", "setting": "DSS-induced colitis; treated mice (28 in non treated)", "result": 17, "unit": "%"}, {"measurement": "lymphoid population in spleen", "setting": "DSS-induced colitis; treated mice (67 in non treated)", "result": 76, "unit": "%"}, {"measurement": "Treg and Tγδ lymphocytes within lymphoid populations of spleen", "setting": "DSS-induced colitis; treated vs non treated", "result": "increased"}, {"measurement": "proportion of conventional DC (cDC) and plasmacytoid DC (pDC) in spleen", "setting": "DSS-induced colitis; treated vs non treated", "result": "did not modify"}]}
{"compound": "O=C(NCc1ccc(Cl)cc1Cl)[C@@H]1CCC(=O)N1C(=O)Nc1ccc(Cl)nc1", "note": "[HEI3090, (S)—N^1-(6-Chloropyridin-3-yl)-N^2-(2,4-dichlorobenzyl)-5-oxopyrrolidine-1,2-dicarboxamide]", "values": [{"measurement": "toxicity in absence of the endogenous P2RX7 ligand (ATP)", "setting": "[1]", "result": "non-toxic"}, {"measurement": "induction of immunogenic cell death (ICD)", "setting": "B16-F10 cells", "result": "does not promote ICD"}]}
